In brackets after ≈: the same amount, converted by molar mass.
What was measured:
[1] = test system: HT-29, MCF-7, NCI-H460, SF268, and IMR90 cells; experiment: Cytotoxicity against the panel of cell lines; type: cell-based, Human
[2] = test system: Mycobacterium smegmatis; experiment: Antimicrobial activity; type: cell-based
[3] = test system: Candida albicans; experiment: Antimicrobial activity; type: cell-based
[4] = test system: Staphylococcus aureus; experiment: Antimicrobial activity; type: cell-based
[5] = test system: Escherichia coli; experiment: Antimicrobial activity; type: cell-based
[6] = test system: Acinetobacter baumannii; experiment: Antimicrobial activity; type: cell-based
[7] = test system: Mycobacterium tuberculosis
[8] = test system: Vero cells; experiment: Vero cell cytotoxicity
[9] = test system: M. tuberculosis, M. smegmatis, C. albicans, E. coli, and A. baumanii; experiment: Antimicrobial activity against a panel of microorganisms; type: cell-based
[10] = test system: IMR90 cells; experiment: Cytotoxicity against IMR90 cells; type: cell-based, Human

[C-]#[N+][C@@H]1[C@H]2c3c[nH]c4cccc(c34)C(C)(C)[C@@H]2CC[C@]1(C)C=C [Hapalindole H]
IC50 ([1]; Homo sapiens, read-out: IC50 values (range over cell lines)): 8.5 to 31.9 µM

[C-]#[N+][C@@H]1[C@H]2C(=O)c3c(NC=O)cccc3C(C)(C)[C@@H]2CC[C@]1(C)C=C [Hapalonamide H]
MIC M. smegmatis [2]: 34.3 µM (≈ 11.5 µg/mL) | MIC C. albicans [3]: < 0.6 µM | MIC S. aureus [4]: > 100 µM | MIC E. coli [5]: > 100 µM | MIC A. baumanii [6]: > 100 µM | MIC M. tuberculosis [7]: 1.2 µM (≈ 0.404 µg/mL) | IC50 ([8]; read-out: IC50 Vero, Vero cell toxicity): 13.6 µM

C=C[C@]1(C)CC2C(=O)c3c(NC=O)cccc3C(C)(C)[C@H]2C[C@H]1O (relative stereo) [13-hydroxy dechlorofontonamide (3), 13-hydroxy dechlorofontonamide]
cytotoxicity (in words) ([1]; all cell lines tested (HT-29, MCF-7, NCI-H460, SF268, IMR90)): inactive | antimicrobial activity (in words) [9]: no antimicrobial activity

[C-]#[N+][C@H]1C(=C)[C@@H](C=C)C[C@@H]2[C@@H]1c1c[nH]c3cccc(c13)C2(C)C [Hapalindole X (1), hapalindole X]
cytotoxicity (in words) [10]: relatively low cytotoxicity | cytotoxicity (in words) ([1]; all four cancer cells (HT-29, MCF-7, NCI-H460, SF268)): moderate cytotoxicity

Gentamycin [reference compound]
MIC E. coli [5]: 2.3 µM

[C-]#[N+]C1=C2c3c[nH]c4cccc(c34)C(C)(C)[C@H]2CC[C@]1(C)C=C [Deschloro hapalindole I (2), deschloro hapalindole I]
antimicrobial activity (in words) [9]: no antimicrobial activity

[C-]#[N+]C1=C2c3c[nH]c4cccc(c34)C(C)(C)[C@H]2C[C@@H](Cl)[C@]1(C)C=C [Hapalindole I]
cytotoxicity against Vero cells (in words) [8]: no detectable cytotoxicity

Source: article PMC3429353 (Bioorganic & medicinal chemistry, 2012)
